US9067937B2 (priority 2012, dated 2015)
Structures can show the parent of a compound that is named as a salt.

Legend:
22Rv1 cells = test: Cell-based assay, anti-proliferative activity (Cell Counting Kit-8, 72 hours); design: species or system human; conditions: Homo sapiens, 22Rv1, 72 h, read-out: IC50 (μM) (22Rvl)
Protocol: (§1) Active candidate inhibitors against MELK were evaluated for their target-specific cytotoxicity using 22Rv1, T47D, A549, DU4475 and HT-1197 cells was used for negative control. 100 micro-L of cell suspension was seeded onto 96-well microtiter plate (ViewPlate-96FTC, PerkinElmer). The initial cell concentration of 22Rv1, T47D, A549, DU4475, and HT1197 were 3,000 cells/well, 2,000 cells/well and 2,500 cells/well, respectively. Cellular growth was determined using Cell Counting Kit-8 (DOJINDO) at 72 hours after the exposure of the candidate inhibitors. […] Accurate IC50 values were calculated as described previously.

DU4475 cells = test: as above; design: species or system human; conditions: Homo sapiens, DU-4475, 72 h, read-out: IC50 (μM) (DU4475)
Protocol: as §1

T47D cells = test: as above; design: species or system human; conditions: Homo sapiens, T47D, 72 h, read-out: IC50 (μM) (T47D)
Protocol: as §1

A549 cells = test: as above; design: species or system human; conditions: Homo sapiens, A549, 72 h, read-out: IC50 (μM) (A549)
Protocol: as §1

MELK = MELK (Homo sapiens, UniProt Q14680); test: Kinase assay (IMAP fluorescence polarization, FITC-labeled histone H3 peptide); format: biochemical; conditions: 50 micro-M ATP
Protocol: MELK activity was determined in the presence or absence of compounds using fluorescein isothiocyanate-labeled (FITC-labeled) histone H3 peptide as a substrate. […] The serially diluted compounds, 0.8 ng/micro-L […] (Carna Biosciences) and 100 nM FITC-labeled histone H3 peptide were reacted in a reaction buffer (20 mM HEPES, 0.01% Tween-20, 0.3 mM MgCl2, 2 mM dithiothreitol, 50 micro-M ATP, pH 7.4) at room temperature for 1 hour. The reaction was stopped by the addition of three fold assay volume of progressive binding solution. […] IC50 values were calculated by nonlinear four parameter fit using SigmaPlot, version 10.0 (Systat Software, Inc.).

HT1197 cells = test: Cell-based assay, anti-proliferative activity, MELK-negative control (Cell Counting Kit-8, 72 hours); design: species or system human; conditions: Homo sapiens, HT1197, 72 h, read-out: IC50 (μM) (HTll97)
Protocol: as §1, with “100” for “Active candidate inhibitors against MELK were evaluated for their target-specific cytotoxicity using 22Rv1, T47D, A549, DU4475 and HT-1197 cells was used for negative control. 100”

Chain of MELK (Q14680 whole entry, looked up): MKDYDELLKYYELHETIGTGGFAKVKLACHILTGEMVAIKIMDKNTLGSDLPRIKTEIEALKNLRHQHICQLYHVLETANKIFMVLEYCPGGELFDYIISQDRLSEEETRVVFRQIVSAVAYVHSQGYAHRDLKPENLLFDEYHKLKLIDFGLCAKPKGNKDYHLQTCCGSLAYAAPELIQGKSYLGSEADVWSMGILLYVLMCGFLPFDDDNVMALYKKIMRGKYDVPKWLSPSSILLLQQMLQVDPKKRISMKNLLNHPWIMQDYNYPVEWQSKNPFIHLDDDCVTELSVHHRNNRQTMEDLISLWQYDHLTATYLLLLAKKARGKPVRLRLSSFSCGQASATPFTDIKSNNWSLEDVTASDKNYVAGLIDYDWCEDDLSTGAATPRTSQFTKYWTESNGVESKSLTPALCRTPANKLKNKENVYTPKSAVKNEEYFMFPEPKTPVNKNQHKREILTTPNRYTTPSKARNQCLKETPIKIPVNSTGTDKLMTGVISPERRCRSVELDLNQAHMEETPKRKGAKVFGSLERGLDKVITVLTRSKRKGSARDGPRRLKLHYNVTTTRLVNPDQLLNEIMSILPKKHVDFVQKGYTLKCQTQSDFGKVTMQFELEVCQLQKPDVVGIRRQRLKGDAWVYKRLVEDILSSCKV

Work on `CC(=O)c1cnc2ccc(-c3cc(F)c(O)c(Cl)c3)nc2c1Nc1cccc(CCN2CCCC2)c1` [Example 20, 1-[6-(3-Chloro-5-fluoro-4-hydroxyphenyl)-4-{3-[2-(pyrrolidin-1-yl)ethyl]phenylamino}-1,5-naphthyridin-3-yl]ethanone dihydrochloride] yielded an IC50 (22Rv1 cells) of 0.81 µM, an IC50 (DU4475 cells) of 0.21 µM and an IC50 (T47D cells) of 0.5 µM. It also gave an IC50 (A549 cells) of 0.31 µM, an IC50 (MELK) of 0.14 µM and an IC50 (HT1197 cells) of 4.8 µM.

With `CC(=O)c1cnc2ccc(-c3cc(Cl)c(O)c(Cl)c3)nc2c1Nc1ccc(OCCN(C)C)nc1` [Example 21, 1-[6-(3,5-Dichloro-4-hydroxyphenyl)-4-{6-[2-(dimethylamino)ethoxy]pyridin-3-ylamino}-1,5-naphthyridin-3-yl)ethanone dihydrochloride] the IC50 (22Rv1 cells) was 0.27 µM, the IC50 (DU4475 cells) was 0.096 µM and the IC50 (T47D cells) was 0.1 µM. For the same molecule, the IC50 (A549 cells) was 0.21 µM, the IC50 (MELK) was 0.0046 µM and the IC50 (HT1197 cells) was 2.3 µM.

`CC(=O)c1cnc2ccc(-c3cc(F)c(O)c(Cl)c3)nc2c1Nc1ccc(OCCN(C)C)nc1` [Example 22, 1-[6-(3-Chloro-5-fluoro-4-hydroxyphenyl)-4-{6-[2-(dimethylamino)ethoxy]pyridin-3-ylamino}-1,5-naphthyridin-3-yl)ethanone dihydrochloride] showed an IC50 (22Rv1 cells) of 0.35 µM, an IC50 (DU4475 cells) of 0.31 µM and an IC50 (T47D cells) of 0.1 µM. It also gave an IC50 (A549 cells) of 0.29 µM, an IC50 (MELK) of 0.015 µM and an IC50 (HT1197 cells) of 3.5 µM.

Molecule `COc1cc(-c2ccc3ncc(C(C)=O)c(Nc4ccc(OCCN(C)C)nc4)c3n2)cc(Cl)c1O` [Example 23, 1-[6-(3-Chloro-4-hydroxy-5-methoxyphenyl)-4-{6-[2-(dimethylamino)ethoxy]pyridin-3-ylamino}-1,5-naphthyridin-3-yl]ethanone dihydrochloride] has an IC50 (22Rv1 cells) of 1.3 µM, an IC50 (DU4475 cells) of 0.41 µM and an IC50 (T47D cells) of 0.38 µM. For the same molecule, the IC50 (A549 cells) was 0.47 µM, the IC50 (MELK) was 0.0089 µM and the IC50 (HT1197 cells) was 8.9 µM.

`CN(C)CCOc1ccc(Nc2c(S(C)(=O)=O)cnc3ccc(-c4cc(Cl)c(O)c(Cl)c4)nc23)cn1` [Example 24, 2,6-Dichloro-4-(8-{6-[2-(dimethylamino)ethoxy]pyridin-3-ylamino}-7-(methylsulfonyl)-1,5-naphthyridin-2-yl)phenol hydrochloride] gave an IC50 (22Rv1 cells) of 1.8 µM, an IC50 (DU4475 cells) of 0.38 µM and an IC50 (T47D cells) of 0.58 µM. It also gave an IC50 (A549 cells) of 5.1 µM, an IC50 (MELK) of 0.0053 µM and an IC50 (HT1197 cells) of 15 µM.

In the case of `CN(C)CCOc1ccc(Nc2c(S(C)(=O)=O)cnc3ccc(-c4cc(F)c(O)c(Cl)c4)nc23)cn1` [Example 25, 2-Chloro-4-(8-{6-[2-(dimethylamino)ethoxy]pyridin-3-ylamino}-7-(methylsulfonyl)-1,5-naphthyridin-2-yl)-6-fluorophenol dihydrochloride], the IC50 (22Rv1 cells) is reported as 2.8 µM, the IC50 (DU4475 cells) is reported as 0.74 µM and the IC50 (T47D cells) is reported as 0.7 µM. It also gave an IC50 (A549 cells) of 5.9 µM, an IC50 (MELK) of 0.019 µM and an IC50 (HT1197 cells) of 21 µM.

`COc1cc(-c2ccc3ncc(S(C)(=O)=O)c(Nc4ccc(OCCN(C)C)nc4)c3n2)cc(Cl)c1O` [Example 26, 2-Chloro-4-(8-(6-(2-(dimethylamino)-ethoxy)pyridin-3-ylamino)-7-(methylsulfonyl)-1,5-naphthyridin-2-yl)-6-methoxyphenol dihydrochloride] was tested, and the IC50 (22Rv1 cells) was 4.1 µM, the IC50 (DU4475 cells) was 1.6 µM and the IC50 (T47D cells) was 1 µM. For the same molecule, the IC50 (A549 cells) was 3.1 µM, the IC50 (MELK) was 0.01 µM and the IC50 (HT1197 cells) was 15 µM.

`CC(=O)c1cnc2ccc(-c3cc(Cl)c(O)c(Cl)c3)nc2c1NCC1CCN(C)CC1` [Example 27, 1-(6-(3,5-Dichloro-4-hydroxyphenyl)-4-((1-methylpiperidin-4-yl)methylamino)-1,5-naphthyridin-3-yl)ethanone dihydrochloride] showed an IC50 (22Rv1 cells) of 0.1 µM, an IC50 (DU4475 cells) of 0.1 µM and an IC50 (T47D cells) of 0.079 µM. It also gave an IC50 (A549 cells) of 0.11 µM, an IC50 (MELK) of 0.0007 µM and an IC50 (HT1197 cells) of 2 µM.

`CC(=O)c1cnc2ccc(-c3cc(Cl)c(O)c(Cl)c3)nc2c1Nc1ccc(CCN(C)C)cc1` [Example 29, 1-[6-(3,5-Dichloro-4-hydroxyphenyl)-4-{4-[2-(dimethylamino)ethyl]phenylamino}-1,5-naphthyridin-3-yl)ethanone dihydrochloride] showed an IC50 (22Rv1 cells) of 0.084 µM, an IC50 (DU4475 cells) of 0.028 µM and an IC50 (T47D cells) of 0.085 µM. The IC50 (A549 cells) was 0.11 µM, the IC50 (MELK) was 0.0026 µM and the IC50 (HT1197 cells) was 0.68 µM.

`CC(=O)c1cnc2ccc(-c3cc(F)c(O)c(Cl)c3)nc2c1Nc1ccc(CCN(C)C)cc1` [Example 30, 1-[6-(3-Chloro-5-fluoro-4-hydroxyphenyl)-4-{4-[2-(dimethylamino)ethyl]phenylamino}-1,5-naphthyridin-3-yl)ethanone dihydrochloride] was tested, and the IC50 (22Rv1 cells) was 0.17 µM, the IC50 (DU4475 cells) was 0.041 µM and the IC50 (T47D cells) was 0.11 µM. It also gave an IC50 (A549 cells) of 0.14 µM, an IC50 (MELK) of 0.0059 µM and an IC50 (HT1197 cells) of 1.2 µM.

Work on `COc1cc(-c2ccc3ncc(C(C)=O)c(Nc4ccc(CCN(C)C)cc4)c3n2)cc(Cl)c1O` [Example 31, 1-(6-(3-Chloro-4-hydroxy-5-methoxyphenyl)-4-(4-(2-(dimethyl-amino)ethyl)phenylamino)-1,5-naphthyridin-3-yl) ethanone dihydrochloride] yielded an IC50 (22Rv1 cells) of 0.65 µM, an IC50 (DU4475 cells) of 0.19 µM and an IC50 (T47D cells) of 0.41 µM. For the same molecule, the IC50 (A549 cells) was 0.31 µM, the IC50 (MELK) was 0.0037 µM and the IC50 (HT1197 cells) was 4.4 µM.

In the case of `CN(C)[C@H]1CC[C@H](Nc2c(S(C)(=O)=O)cnc3ccc(-c4cc(F)c(O)c(Cl)c4)nc23)CC1` [Example 32, 2-Chloro-4-(8-(trans-4-(dimethylamino)-cyclohexylamino)-7-(methylsulfonyl)-1,5-naphthyridin-2-yl)-6-fluorophenol dihydrochloride], the IC50 (22Rv1 cells) is reported as 0.046 µM, the IC50 (DU4475 cells) is reported as 0.0063 µM and the IC50 (T47D cells) is reported as 0.024 µM. It also gave an IC50 (A549 cells) of 0.2 µM, an IC50 (MELK) of 0.0016 µM and an IC50 (HT1197 cells) of 3.1 µM.

Molecule `CC(=O)c1cnc2ccc(-c3cc(Cl)c(O)c(Cl)c3)nc2c1Nc1cnn(C2CCN(C)CC2)c1` [Example 33, 1-[6-(3,5-Dichloro-4-hydroxyphenyl)-4-[1-(1-methylpiperidin-4-yl)-1H-pyrazol-4-ylamino]-1,5-naphthyridin-3-yl]ethanone dihydrochloride] has an IC50 (22Rv1 cells) of 0.64 µM, an IC50 (DU4475 cells) of 0.34 µM and an IC50 (T47D cells) of 0.35 µM. The IC50 (A549 cells) was 0.93 µM, the IC50 (MELK) was 0.0078 µM and the IC50 (HT1197 cells) was 100 µM.

`CC(=O)c1cnc2ccc(-c3cc(Cl)c(O)c(Cl)c3)nc2c1Nc1ccc(CN2CCN(C)CC2)cc1` [Example 34, 1-(6-(3,5-Dichloro-4-hydroxyphenyl)-4-(4-((4-methylpiperazin-1-yl)methyl)-phenylamino)-1,5-naphthyridin-3-yl)ethanone trihydrochloride] gave an IC50 (22Rv1 cells) of 0.21 µM, an IC50 (DU4475 cells) of 0.096 µM and an IC50 (T47D cells) of 0.11 µM. It also gave an IC50 (A549 cells) of 0.19 µM, an IC50 (MELK) of 0.0061 µM and an IC50 (HT1197 cells) of 1.6 µM.

With `CC(=O)c1cnc2ccc(-c3cc(F)c(O)c(Cl)c3)nc2c1Nc1ccc(CN2CCN(C)CC2)cc1` [Example 35, 1-[6-(3-Chloro-5-fluoro-4-hydroxyphenyl)-4-{4-[(4-methylpiperazin-1-yl)methyl]phenylamino}-1,5-naphthyridin-3-yl]ethanone trihydrochloride] the IC50 (22Rv1 cells) was 0.65 µM, the IC50 (DU4475 cells) was 0.31 µM and the IC50 (T47D cells) was 0.22 µM. The IC50 (A549 cells) was 0.41 µM, the IC50 (MELK) was 0.037 µM and the IC50 (HT1197 cells) was 3.8 µM.

With `CC(=O)c1cnc2ccc(-c3cc(Cl)c(O)c(Cl)c3)nc2c1N1CCC(CCN2CCCC2)CC1` [Example 36, 1-[6-(3,5-Dichloro-4-hydroxyphenyl)-4-{4-[2-(pyrrolidin-1-yl)ethyl]piperidin-1-yl}-1,5-naphthyridin-3-yl]ethanone dihydrochloride] the IC50 (22Rv1 cells) was 0.36 µM, the IC50 (DU4475 cells) was 0.22 µM and the IC50 (T47D cells) was 0.21 µM. For the same molecule, the IC50 (A549 cells) was 0.63 µM, the IC50 (MELK) was 0.0021 µM and the IC50 (HT1197 cells) was 4.7 µM.

In the case of `CC(=O)c1cnc2ccc(-c3cc(F)c(O)c(Cl)c3)nc2c1N1CCC(CCN2CCCC2)CC1` [Example 37, 1-[6-(3-Chloro-5-fluoro-4-hydroxyphenyl)-4-{4-[2-(pyrrolidin-1-yl)ethyl]piperidin-1-yl}-1,5-naphthyridin-3-yl]ethanone dihydrochloride], the IC50 (22Rv1 cells) is reported as 0.49 µM, the IC50 (DU4475 cells) is reported as 0.42 µM and the IC50 (T47D cells) is reported as 0.25 µM. For the same molecule, the IC50 (A549 cells) was 1.2 µM, the IC50 (MELK) was 0.01 µM and the IC50 (HT1197 cells) was 7.2 µM.

With `CC(=O)c1cnc2ccc(-c3cc(Cl)c(O)c(Cl)c3)nc2c1Nc1ccc(NCCN(C)C)nc1` [Example 38, 1-[6-(3,5-Dichloro-4-hydroxyphenyl)-4-{6-[2-(dimethylamino)ethylamino]pyridin-3-ylamino}-1,5-naphthyridin-3-yl]ethanone trihydrochloride] the IC50 (22Rv1 cells) was 0.24 µM, the IC50 (DU4475 cells) was 0.069 µM and the IC50 (T47D cells) was 0.11 µM. For the same molecule, the IC50 (A549 cells) was 0.26 µM, the IC50 (MELK) was 0.011 µM and the IC50 (HT1197 cells) was 9.5 µM.
